Columns and labels:
plasma protein = experiment: Literature % plasma protein binding of calibration compounds; conditions: linear conversion of literature % PPB
Protocol: Calibration of the protein columns: The column performance check and the calibration have been performed before the analysis of every 96 well plate. The compounds used for the column calibrations were dissolved separately in 0.5 mg/ml concentration in 50% 2-propanol and 50% pH 7.4 ammonium acetate solution mixtures.
The literature % PPB (bound in plasma) values were converted to the linear free energy related logk values (logarithm of apparent affinity constant) using the following equation.

HSA = biological target: T1, HSA (Homo sapiens, UniProt P02768); experiment: HSA binding by immobilised HSA HPLC column; type: in vitro ADME; conditions: for logK measured / % HSA measured: HSA column, typical data; for logK measured: derived from the calibration curve
T1 construct: purchased Chromtech (Cheshire, UK)
Protocol: Instrument: Agilent HP1100 HPLC instruments were used throughout.
HPLC columns: Chromtech Immobilised HSA HPLC column 50×3 mm was purchased from Chromtech (Cheshire, UK).
Mobile phase and detection: The mobile phase A was 50 mM pH 7.4 ammonium acetate solution, while mobile phase B was 2-Propanol (HPLC grade, Runcorn, UK). The mobile phase flow rate was 1.8 ml/min. The column temperature was kept at 30° C. The gradient profile and run time were the same with each column, the linear gradient from 0 to 30% 2-propanol was applied from 0 to 3 minutes. From 3 to 10 minutes, the mobile phase composition was constant 30% 2-propanol and 70% 50-mM ammonium acetate. […] Each separation was stopped after 15 minutes.
Detection: Chromatograms were recorded at 230 and 254 nm by a diode array UV absorption detector at room temperature.

[1] = biological target: T2, human adenosine A1 receptor (Homo sapiens, UniProt P30542); experiment: Agonist activity against adenosine A1 receptor (CHO or yeast assay); type: cell-based; conditions: A2A over A1
T2 construct: expressed in transfected cells; host or cells: CHO cells or yeast cells
T2 sequence (P30542 1-326): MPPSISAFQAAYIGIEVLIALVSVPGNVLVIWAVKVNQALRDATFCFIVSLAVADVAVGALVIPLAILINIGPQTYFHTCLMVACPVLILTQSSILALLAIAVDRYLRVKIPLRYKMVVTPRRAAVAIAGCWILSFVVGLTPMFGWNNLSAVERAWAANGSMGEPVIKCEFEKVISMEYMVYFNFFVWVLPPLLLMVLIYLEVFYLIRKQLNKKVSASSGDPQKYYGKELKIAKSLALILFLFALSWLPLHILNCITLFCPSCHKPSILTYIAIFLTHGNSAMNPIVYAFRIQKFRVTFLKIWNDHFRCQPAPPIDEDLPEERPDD
Protocol: (§1) 1) In Vitro: Agonist Activity Against Adenosine A1, A2A, A2B and A3 Receptors.
(§2) The agonist potency and selectivity of compounds against human adenosine receptors is determined using Chinese hamster ovary (CHO) cells or yeast cells transfected with the gene for the relevant receptor.
(§3) Two methods may be used in the CHO cells. (i) For the SPAP assay, cells are also transfected with cyclic AMP (cAMP) response elements promoting the gene for secreted placental alkaline phosphatase (SPAP). Changes in cAMP are measured as changes in the levels of SPAP. (ii) The DiscoveRx assay is an enzyme complementation assay that involves two fragments of β-galactosidase, enzyme acceptor (EA) and enzyme donor (ED). […] For both methods the effect of test compounds is determined by their effects on basal levels of cAMP (A2A and A2B) or on forskolin enhanced cAMP (A1 and A3).
(§4) For the yeast assay, receptor stimulation causes activation of a reporter gene, namely FUS1-HIS3, resulting in histidine production which is essential for cell growth. […] This response is measured from the production of the exoglucanase, an enzyme secreted constitutively by yeast cells.
(§5) In all of the in vitro assays the activity of test compounds is expressed as a ratio to that of the non-selective adenosine receptor agonist, N-ethyl carboxamide adenosine (NECA).

[2] = biological target: T3, human adenosine A2B receptor (Homo sapiens, UniProt P29275); experiment: Agonist activity against adenosine A2B receptor (CHO or yeast assay); type: cell-based; conditions: A2A over A2B
T3 construct: expressed in transfected cells; host or cells: CHO cells or yeast cells
T3 sequence (P29275 1-332): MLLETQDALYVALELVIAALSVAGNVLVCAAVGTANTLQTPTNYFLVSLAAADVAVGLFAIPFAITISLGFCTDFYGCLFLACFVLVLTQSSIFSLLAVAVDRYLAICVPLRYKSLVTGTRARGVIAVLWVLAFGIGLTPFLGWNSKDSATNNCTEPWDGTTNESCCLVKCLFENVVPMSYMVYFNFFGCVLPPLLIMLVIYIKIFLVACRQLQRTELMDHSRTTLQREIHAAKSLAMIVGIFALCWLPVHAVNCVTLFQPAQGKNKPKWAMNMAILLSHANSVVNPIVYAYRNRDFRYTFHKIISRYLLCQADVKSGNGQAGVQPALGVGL
Protocol: as §1, §2, §3, §4, §5

[3] = biological target: T4, human adenosine A3 receptor (Homo sapiens, UniProt P0DMS8); experiment: Agonist activity against adenosine A3 receptor (CHO or yeast assay); type: cell-based; conditions: A2A over A3
T4 construct: expressed in transfected cells; host or cells: CHO cells or yeast cells
T4 sequence (P0DMS8 1-318): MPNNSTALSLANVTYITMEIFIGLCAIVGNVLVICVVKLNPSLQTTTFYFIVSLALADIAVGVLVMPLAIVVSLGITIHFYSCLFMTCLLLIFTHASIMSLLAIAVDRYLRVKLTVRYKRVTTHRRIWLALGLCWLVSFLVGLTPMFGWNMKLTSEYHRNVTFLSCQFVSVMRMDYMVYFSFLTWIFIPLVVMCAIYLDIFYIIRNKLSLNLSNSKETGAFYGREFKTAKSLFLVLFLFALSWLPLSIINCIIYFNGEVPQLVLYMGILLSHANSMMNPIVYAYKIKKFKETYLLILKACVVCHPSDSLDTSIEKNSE
Protocol: as §1, §2, §3, §4, §5

neutrophil accumulation = experiment: In vivo anti-inflammatory LPS model; parameters: species or system rat; conditions: male CD albino rats, intratracheal, dose of 30 μg/kg or less, lung lavage 4 h after LPS challenge
Protocol: In Vivo Anti-Inflammatory Agonist Activity LPS Model: Test compound was administered to male CD albino rats prior to exposure to LPS. Compound (or vehicle) was injected in a 200 ul volume into the trachea , via a cannula placed trans-orally, whilst the animals were under isoflurane anaesthesia. After a recovery period of 30 min, rats were placed in a chamber and exposed to an aerosol of E. Coli-derived LPS for 15 min. Four hours after LPS challenge the rats were killed, the lungs lavaged, and both total and differential cell counts determined.

[4] = Cardiovascular model (therapeutic index); type: in vivo, rat; conditions: anaesthetised male Wistar rats, administered into the trachea
Protocol: 3) Therapeutic Index (TI) Cardiovascular Model: Male Wistar rats were anaesthetised with chloralose/pentobarbitone and the jugular vein, left carotid artery and trachea were cannulated. The arterial cannula was connected to a transducer for the continuous measurement of blood pressure and heart rate. Compound (or vehicle) was administered into the trachea in a 100 ul volume, and the dose of test compound giving a 20% increase in blood pressure and heart rate (ED20) was determined. The TI for a test compound is calculated as the ratio of the ED20 in the cardiovascular model compared with the ED50 in the LPS model.

T1 sequence (P02768 25-609): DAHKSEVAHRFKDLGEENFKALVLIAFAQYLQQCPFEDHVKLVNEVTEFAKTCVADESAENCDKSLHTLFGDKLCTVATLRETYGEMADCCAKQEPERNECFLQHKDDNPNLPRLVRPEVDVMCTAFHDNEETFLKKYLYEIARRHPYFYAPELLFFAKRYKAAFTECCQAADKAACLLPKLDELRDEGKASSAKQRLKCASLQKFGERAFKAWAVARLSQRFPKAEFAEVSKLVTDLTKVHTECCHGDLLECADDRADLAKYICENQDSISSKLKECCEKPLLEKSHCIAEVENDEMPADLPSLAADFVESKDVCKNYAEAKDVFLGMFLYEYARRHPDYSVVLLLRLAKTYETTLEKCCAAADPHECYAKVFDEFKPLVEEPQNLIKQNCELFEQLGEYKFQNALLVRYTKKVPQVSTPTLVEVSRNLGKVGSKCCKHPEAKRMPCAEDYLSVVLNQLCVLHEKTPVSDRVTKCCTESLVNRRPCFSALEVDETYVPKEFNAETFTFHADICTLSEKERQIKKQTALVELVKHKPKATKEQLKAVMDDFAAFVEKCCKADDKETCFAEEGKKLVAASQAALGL

SMILES	lit logK (plasma protein)	logK measured (HSA)	% HSA measured (HSA) [%]	also measured
CCCC1O[C@@H]2C[C@H]3[C@@H]4CCC5=CC(=O)C=C[C@]5(C)[C@H]4[C@@H](O)C[C@]3(C)[C@]2(C(=O)CO)O1 (stereo partly drawn) [Budesonide]	0.83	0.70	84.2	–
O=C(O)Cc1ccccc1Nc1c(Cl)cccc1Cl [Diclofenac]	1.92	–	–	–
CCn1nnc([C@H]2O[C@@H](n3cnc4c(N[C@H]5CC[C@H](Nc6nc(NCCc7cn(C)cn7)nc7c6ncn7[C@@H]6O[C@H](c7nnn(CC)n7)[C@@H](O)[C@H]6O)CC5)nc(NCCc5cn(C)cn5)nc43)[C@H](O)[C@@H]2O)n1.O=CO [Formic acid—(2R,3R,4S,5R,2′R,3′R,4′S,5′R)-2,2′-{trans-1,4-cyclohexanediylbis[imino(2-{[2-(1-methyl-1H-imidazol-4-yl)ethyl]amino}-9H-purine-6,9-diyl)]}bis[5-(2-ethyl-2H-tetrazol-5-yl)tetrahydro-3,4-furandiol] (4:1)]	–	–	–	selectivity for A2A than A1 [1]: greater than 100 fold; selectivity for A2A than A2B [2]: greater than 100 fold; selectivity for A2A than A3 [3]: greater than 100 fold; reduction in neutrophil accumulation (neutrophil accumulation): greater than 50%; dose giving a 20% increase in blood pressure and heart rate (ED20) [4]: about 7 μg/kg; binding to HSA (HSA; immobilised HSA HPLC column, pH 7.4): greater than 90%
CN1C(C(=O)Nc2ccccn2)=C(O)c2ccccc2S1(=O)=O [Piroxicam]	1.16	1.10	93.6	–
NC(=O)N1c2ccccc2C=Cc2ccccc21 [Carbamazepine]	0.46	0.50	76.8	–
COC(=O)C1=C(C)NC(C)=C(C(=O)OCCN(C)Cc2ccccc2)C1c1cccc([N+](=O)[O-])c1 (stereo not drawn) [Nicardipine]	–	1.38	97.0	–
CNC(=C[N+](=O)[O-])NCCSCc1csc(CN(C)C)n1 [Nizatidine]	−0.28	−0.35	31.1	–
O=C1CN=C(c2ccccn2)c2cc(Br)ccc2N1 [Bromazepam]	0.17	0.38	71.2	–
